Measured values from patent publication US9133260B2 (priority 2005, dated 2015).
Entries after “also recorded” stand apart in the source; their conditions may differ. Like-named read-outs stand apart in the source and are kept apart here. Ends that are not written are not given here.

Tests used:
relevant receptors = test: Cyclase, table of GIP/amylin-sCT hybrids; format: biochemical; conditions: receptor and unit inferred
[1] = cited from earlier work; for inhibition of gastric emptying, in words: at doses of 100 μg; for EC(50) inhibition of gastric emptying: subcutaneous, conscious rats, rat weight ~200 g
[2] = format: in vivo, NIH/Swiss mice; conditions: for acute food intake, in words: IP at t=0, 30, 60, 120 min
Method: Peptide was injected IP at t=0.
Peptide was injected IP at t=0. […] Peptide was injected IP at t=0.

[3] = system: cardiomyocyte Gs-coupled receptors; test: cAMP production in isolated neonatal cardiomyocytes (HTRF); format: cell-based, rat
Method: Activation of cardiomyocyte Gs- and Gi-coupled receptors was determined as a measure of cAMP production.
Cell Isolation. Neonatal cardiomyocytes were isolated using a commercially available system. […] Sprague Dawley neonatal rats (1-2 days old) were decapitated and the beating heart dissected out into digestion buffer (Cellutron D1 buffer) to dissociate cells. […] The resuspended cells incubated in buffer (Cellutron D3 buffer) for sufficient time to allow optimal dispersion and minimize the need for pipetting to break up clumps. Cells released from the first 2 digestions were discarded since a significant portion of these is red blood cells. Resuspended cells were filtered and allowed to pre-plate for 1 hour on plastic in an incubator in NS media (Cellutron, NJ) in order to remove fibroblasts. After 1 hour of pre-plating, floating cells are removed and the flask rinsed with NS media. The floating cells and the cells in the rinse media were combined and counted. Residual red blood cells, which are smaller that the cardiac myocytes, were not counted.
Cell Plating. […] At Day 1, the NS media was replaced with fresh NS media.
cAMP Assay. […] Dose response was determined.
For Gs assays the positive control was 10 uM forskolin and negative control was buffer. For Gi assays the positive control was buffer and the negative control was 10 uM forskolin.

[4] = Basal glucose lowering in 2-hour fasted NIH/Swiss mice; format: in vivo; conditions: for basal glucose lowering (% maximal decrease): mouse, in vivo
Method: (§1) In FIG. 3A, bars represent mean±sd, n=6-10. Peptide was injected IP at t=−5 into overnight-fasted NIH/Swiss mice. Gavage (1.5 g/kg) was given at t=0. Sample was taken at t=30 min. […] In FIG. 3B, points represent mean±sem, n=8-15. Peptide was injected IP at t=0 immediately following baseline sample into 2-hour fasted NIH/Swiss mice. Samples were taken at t=60, 120, and 180 minutes. […] Compound G has both an N-terminal modification providing DPP-IV resitance and a C-terminal Trp-cage shield.
Points represent mean±sem. Peptide was injected IP at t=0 immediately following baseline sample into 2-hour fasted NIH/Swiss mice. Samples were taken at t=60, 120, 180 and 240 minutes.
FIGS. 8A and 8b provide a result of one such study. Points represent mean±sem. Peptide was injected IP at t=0 immediately following baseline sample into 2-hour fasted NIH/Swiss mice. Samples were taken at t=60, 120, 180 and 240 minutes.

[5] = Intravenous glucose tolerance test (IVGTT assay); format: in vivo, rats; conditions: 100 pmol/kg/min infusion; for insulinotropic response to an intravenous glucose challenge: anesthetized HSD male rats
Method: All three analogs produced a significant lowering of the glucose excursion in response to the glucose challenge (data not shown). As described, fed, isoflurane anesthetized HSD male rats were intubated and cannulated via femoral artery and vein and allowed to stabilize for 1 hour. […] At t=0, an i.v. bolus of 5.7 mmol/kg D-glucose was administered over 2 minutes. Samples for glucose measurement and insulin concentrations were taken at various time points before and after (0 to 90 minutes) glucose infusion.

[6] = Oral glucose tolerance test (OGTT); format: in vivo, NIH/Swiss mice; conditions: decrease in the OGTT assay
Method: as §1
In FIG. 13B bars represent mean+/−sd. Peptide was injected IP at t=−5 minutes into 4-hour fasted NIH/Swiss female mice. Gavage (1.5 g/kg) was given at t=0. […] In FIG. 17 points represent mean+/−sem. Peptide was injected IP at t=) immediatley following baseline sample into 2-hour fasted NIH/Swiss mice. Samples were taken at t=60, t=120 and t=180. […] In one embodiment for each of these GIP hybrids a Gly linker is used, e.g. GlyGlyGly.

[7] = Body weight in diet-induced-obesity (DIO) mice; format: in vivo, C57BL/6 mice; conditions: for body weight change in diet-induced-obese mice: infused via osmotic pump for 2 weeks
[8] = Glucose lowering in diabetic db/db mice; format: in vivo; conditions: IP; GIP at a 10 fold higher dose
Method: Peptide was injected IP at t=0 immediately following baseline sample into 2-hour fasted db/db mice.

[9] = Circulatory system effects in conscious rats by telemetry; format: in vivo; conditions: 80 nmol/kg intravenous
Method: The experiments were performed during the light cycle. Telemetry allows for real-time hemodynamic readings including arterial blood pressure, heart rate and arterial dP/dt, via an implanted radio transmitter in conscious, non-anesthetized, unrestrained rats. […] Remote intravenous dosing was achieved through in-dwelling vascular access ports (Access Technologies (Skokie, Ill.). The port is secured to the underlying muscle just below the skin between the scapulae. The catheter resides in the jugular vein. Data were collected for up to 60 minutes following injection.

## YAEGTFISDYSIAMDKIHQQDFVNWLLAQKPSSGAPPPS [Compound 1]
Relevant receptors
  EC50: 519 nM

## neuropeptide Y: neuropeptide Y
[1]
  inhibition of gastric emptying, in words: weakly active or inactive

## KCNTATCATQRLANFLVRSSNNLGPVLPPTNVGSNTY-NH2 [Rat Amylin]
[1]
  EC(50) inhibition of gastric emptying: 0.18 µg
[2]
  acute food intake, in words: significant decrease in food intake within 30 min
[2]; mouse food intake at 60 min
  60 min ED50: 9 nmol/kg

## CSNLSTCVLGKLSQELHKLQTYPRTNTGSGTP [Salmon calcitonin]
[1]
  EC(50) inhibition of gastric emptying: 0.19 µg

## Rat CGRP: rat calcitonin gene related peptide (SCNTATCVTHRLAGLLSRSGGVVKDNFVPTNVGSEAF; ends and bridges not checked; cysteine pairing not given here; UniProt P01256 83-119, looked up)
[1]
  EC(50) inhibition of gastric emptying: 1.62 µg

## HAEGTFTSDVSSYLEGQAAKEFIAWLVKGR-NH2 [GLP-1]
[3]
  cAMP activity in cardiomyocytes, in words: very low to no significant activity
[1]
  EC(50) inhibition of gastric emptying: 1.82 µg

## Y(D-Ala)EGTFISDYSIAMDKIHQQDFVNWLLAQKGKKNDWKHNITQ-OH [Compound 0601GIP4042]
[4]
  basal glucose lowering (% maximal decrease): −11%
[5]
  insulinotropic response to an intravenous glucose challenge: significant enhancement of the insulinotropic response

## YaEGTFISDYSIAMDKIHQQDFVNWLLAQKPSSGAPPPS-NH2 [Compound 0601GIP3794]
[6]
  OGTT response: −21%
[4]; IP, samples 60-240 min, listed as Compound G
  glucose lowering in normal NIH/Swiss mice, in words: significantly more efficacious than full length GIP; also recorded: gradually increasing activity that peaks at t=120 min
[4]
  basal glucose lowering (% maximal decrease): −20%
[3]; experiment of FIGS. 18A/18B, read-out: EC50, cAMP production in cardiomyocytes
  EC50: 11.7 nM
[3]; from three independent experiments, read-out: EC50, cardiomyocyte Gs-coupled receptor activation
  EC50: 29.8 nM
[7]
  body weight change in diet-induced-obese mice: without a concomitant reduction in body weight
[7]; mouse, in vivo
  body composition: slight decrease in percentage body fat with an increase in body protein
[8]
  glucose lowering in diabetic db/db mice, in words: pronounced and long-acting effect in lowering glucose
[5]
  insulin levels prior to the glucose challenge: significant rise in insulin levels
  insulinotropic response to an intravenous glucose challenge: significant enhancement of the insulinotropic response
[2]
  acute food intake, in words: did not acutely inhibit food intake
[9]
  dP/dt: increased dP/dt similarly
  heart rate: transient relative to GIP
  mean arterial pressure: decreased mean arterial pressure
  systolic and diastolic pressures: sustained lowering of systolic and diastolic pressures

## DY(SO3) MGWMDF-NH2 [CCK-8]
[1]
  EC(50) inhibition of gastric emptying: 2.93 µg
[2]; mouse, in vivo
  60 min ED50: 26 nmol/kg

## YAEGTFISDYSIAMDKIHQQDFVNWLLAQKGKKNDWKHNITQ-OH [GIP]
[6]
  OGTT response: −10%
[7]
  body weight change in diet-induced-obese mice: had no effect on body weight change
[1]
  inhibition of gastric emptying, in words: weakly active or inactive
[8]
  glucose lowering in diabetic db/db mice, in words: modest and wanes over time
[5]
  insulin levels prior to the glucose challenge: significant rise in insulin levels
  insulinotropic response to an intravenous glucose challenge: significant enhancement of the insulinotropic response
[2]
  acute food intake, in words: did not acutely inhibit food intake
[9]
  dP/dt: increased dP/dt similarly
  heart rate: chronotropic (heart rate elevating) effect
  mean arterial pressure: had no effect

## Gastrin releasing peptide: gastrin releasing peptide (VPLPAGGGTVLTKMYPRGNHWAVGHLM-NH2; ends and bridges not checked; UniProt P07492 24-50, looked up)
[1]
  EC(50) inhibition of gastric emptying: 28.5 µg

## HGEGAFTSDLSKQLEEEAVRLFIEFLKN-NH2 [Exendin-4 (1-28) [Ala5, Leu14, Phe25]]
[2]; mouse food intake at 60 min
  60 min ED50: 13 nmol/kg

## KCNTATCATQRLANFLVHSSNNFGAILSSTNVGSNTY [Human amylin]
[1]
  EC(50) inhibition of gastric emptying: 0.15 µg

## adrenomedullin: amylin family peptide hormone adrenomedullin (YRQSMNNFQGLRSFGCRFGTCTVQKLAHQIYQFTDKDKDNVAPRSKISPQGY; ends and bridges not checked; cysteine pairing not given here; UniProt P35318 95-146, looked up)
[1]
  inhibition of gastric emptying, in words: weakly active or inactive

## Secretin: gut peptide hormone secretin
[1]
  EC(50) inhibition of gastric emptying: 1.87 µg

## PACAP38: pituitary adenylate cyclase activating peptide (PACAP38) (HSDGIFTDSYSRYRKQMAVKKYLAAVLGKRYKQRVKNK-NH2; ends and bridges not checked; UniProt P18509 132-169, looked up)
[1]
  inhibition of gastric emptying, in words: weakly active or inactive

## glucagon: peptide hormone glucagon
[1]
  inhibition of gastric emptying, in words: weakly active or inactive

## Rat calcitonin: rat calcitonin, peptide compared for inhibition of gastric emptying (CGNLSTCMLGTYTQDLNKFHTFPQTSIGVGAP; ends and bridges not checked; cysteine pairing not given here; UniProt P01257 85-116, looked up)
[1]
  EC(50) inhibition of gastric emptying: 0.64 µg

## vasoactive intestinal peptide: vasoactive intestinal peptide (VIP) (HSDAVFTDNYTRLRKQMAVKKYLNSILN; ends and bridges not checked; UniProt P01282 125-152, looked up)
[1]
  inhibition of gastric emptying, in words: weakly active or inactive

## insulin: insulin (tested with plasma glucose maintained constant)
[1]
  inhibition of gastric emptying, in words: weakly active or inactive
